Test results: US20250188092A1, “RIFAMYCIN ANALOGS” (THE REGENTS OF THE UNIVERSITY OF MICHIGAN, priority 2021, published 2025)
In brackets after ≈: the same amount, converted by molar mass.

How the values were obtained:
DPX2 cells = settings: for DPX2 Viability @ 6.25 μM: 24 h; for DPX2 Viability @ 25 μM: human
MTB H37Rv ATCC 27294 = experiment: MIC, microplate Alamar Blue assay (MABA); assay type: cell-based, Mycobacterium tuberculosis; settings: for MIC90 / MIC: MTB H37Rv ATCC 27294, microplate Alamar Blue assay, lowest concentration giving ≥90% reduction in fluorescence; for MIC: read-out: MIC90 MABA
VERO cells (ATCC CRL-81) = experiment: Vero cell toxicity; assay type: cell-based; settings: 72 hours exposure
Method: Cytotoxicity for a mammalian cell line was determined by exposing VERO cells (ATCC CRL-81) to serial dilutions of test compounds for 72 hours, followed by addition of resazurin and measurement of fluorescence after 4 hours incubation (Choules, et al., Antimnicrob. Agents Chemother. 2019, 63, e02204-02218).

SMILES	DPX2 Viability @ 6.25 μM (DPX2 cells)	DPX2 Viability @ 25 μM (DPX2 cells)	MIC90 MABA Rel to RMP (MTB H37Rv ATCC 27294)	MIC90 (MTB H37Rv ATCC 27294; Mycobacterium tuberculosis)	IC50 (VERO cells (ATCC CRL-81); Chlorocebus sabaeus, Vero)	MIC (MTB H37Rv ATCC 27294; Mycobacterium tuberculosis)	MIC90 (MTB H37Rv ATCC 27294)	IC50 (VERO cells (ATCC CRL-81))
CO[C@H]1/C=C/O[C@@]2(C)Oc3c(C)c(O)c4c(=O)c(c5oc6cc(N7CCC(C(=O)O)CC7)cc(C)c6nc-5c4c3C2=O)NC(=O)/C(C)=C\C=C\[C@H](C)[C@H](O)[C@@H](C)[C@@H](O)[C@@H](C)[C@H](OC(C)=O)[C@@H]1C [Compound 29f, 1-[(7S,9E,11S,12R,13S,14R,15R,16R,17S,18S,19E,21Z)-13-(acetyloxy)-2,15,17-trihydroxy-11-methoxy-3,7,12,14,16,18,22,32-octamethyl-6,23,37-trioxo-8,27,38-trioxa-24,34-diazahexacyclo-[23.11.1.1^4,7.0^5,36.0^26,35.0^28,33]octatriaconta-1,3,5(36)9,19,21,25,28,30,32,34-undecaen-30-yl]piperidine-4-carboxylic acid]	126%	131%	8.9	0.238 µM (≈ 0.22 µg/mL)	> 10 µM	–	–	–
CO[C@H]1/C=C/O[C@@]2(C)Oc3c(C)c(O)c4c(=O)c(c5oc6cc(N7CCOC(CN(C)C)C7)cc(OCc7ccc(CN8CCOCC8)cc7)c6nc-5c4c3C2=O)NC(=O)/C(C)=C\C=C\[C@H](C)[C@H](O)[C@@H](C)[C@@H](O)[C@@H](C)[C@H](OC(C)=O)[C@@H]1C (stereo partly drawn) [Compound 17o, (7S,9E,11S,12R,13S,14R,15R,16R,17S,18S,19E,21Z)-30-{2-[(dimethylamino)methyl]morpholin-4-yl}-2,15,17-trihydroxy-11-methoxy-3,7,12,14,16,18,22-heptamethyl-32-{[4-(morpholin-4-ylmethyl)phenyl]methoxy}-6,23,37-trioxo-8,27,38-trioxa-24,34-diazahexacyclo[23.11.1.1^4,7.0^5,36.0^26,35.0^28,33]octatriaconta-1,3,5(36)9,19,21,25,28,30,32,34-undecaen-13-yl acetate]	96%	42%	1.1	0.055 µM	> 10 µM	–	–	–
CO[C@H]1/C=C/O[C@@]2(C)Oc3c(C)c(O)c4c(=O)c(c5oc6cc(N7CCCC(C(=O)Nc8ccc(Cl)cc8)C7)cc(C)c6nc-5c4c3C2=O)NC(=O)/C(C)=C\C=C\[C@H](C)[C@H](O)[C@@H](C)[C@@H](O)[C@@H](C)[C@H](OC(C)=O)[C@@H]1C (stereo partly drawn) [Compound 28, (7S,9E,11S,12R,13S,14R,15R,16R,17S,1S,19E,21Z)-30-{3-[(4-Chlorophenyl)carbamoyl]piperidin-1-yl}-2,15,17-trihydroxy-11-methoxy-3,7,12,14,16,18,22,32-octamethyl-6,23,37-trioxo-8,27,38-trioxa-24,34-diazahexacyclo[23.11.1.1^4,7.0^5,36.0^26,35.0^28,33]octatriaconta-1(36)2,4,9,19,21,25,28,30,32,34-undecaen-13-yl acetate]	110%	109%	0.16	0.0044 µM	> 10 µM	–	–	–
CO[C@H]1/C=C/O[C@@]2(C)Oc3c(C)c(O)c4c(=O)c(c5oc6cc(N7CCN(CC(=O)O)CC7)cc(OCc7ccc(CN8CCOCC8)cc7)c6nc-5c4c3C2=O)NC(=O)/C(C)=C\C=C\[C@H](C)[C@H](O)[C@@H](C)[C@@H](O)[C@@H](C)[C@H](OC(C)=O)[C@@H]1C [Compound 17i]	106%	100%	1.0	–	> 10 µM	0.026 µM (≈ 0.0294 µg/mL)	–	–
CO[C@H]1/C=C/O[C@@]2(C)Oc3c(C)c(O)c4c(=O)c(c5oc6cc(N7CCC(CC(=O)O)CC7)cc(C)c6nc-5c4c3C2=O)NC(=O)/C(C)=C\C=C\[C@H](C)[C@H](O)[C@@H](C)[C@@H](O)[C@@H](C)[C@H](OC(C)=O)[C@@H]1C [Compound 29g, 2-{4-[(7S,9E,11S,12R,13S,14R,15R,16R,17S,18S,19E,21Z)-13-(acetyloxy)-2,15,17-trihydroxy-11-methoxy-3,7,12,14,16,18,22,32-octamethyl-6,23,37-trioxo-8,27,38-trioxa-24,34-diazahexacyclo[23.11.1.1^4,7.0^5,36.0^26,35.0^28,33]octatriaconta-1,3,5(36)9,19,21,25,28,30,32,34-undecaen-30-yl]piperidin-4-yl}acetic acid]	100%	101%	1.9	0.051 µM (≈ 0.0479 µg/mL)	> 10 µM	–	–	–
CCC(=O)N1CCN(c2cc(OCc3ccc(CN4CCOCC4)cc3)c3nc4c5c6c7c(C)c(O)c5c(=O)c(c-4oc3c2)NC(=O)/C(C)=C\C=C\[C@H](C)[C@H](O)[C@@H](C)[C@@H](O)[C@@H](C)[C@H](OC(C)=O)[C@H](C)[C@@H](OC)/C=C/O[C@@](C)(O7)C6=O)CC1 [Compound 17g, (7S,9E,11S,12R,13S,14R,15R,16R,17S,18S,19E,21Z)-2,15,17-Trihydroxy-11-methoxy-3,7,12,14,16,18,22-heptamethyl-32-({4-[(morpholin-4-yl)methyl]phenyl}methoxy)-6,23,37-trioxo-30-(4-propanoylpiperazin-1-yl)-8,27,38-trioxa-24,34-diazahexacyclo-[23.11.1.1^4,7.0^5,36.0^26,35.0^28,33]octatriaconta-1(36)2,4,9,19,21,25,28,30,32,34-undecaen-13-yl acetate]	117%	56%	0.4	0.012 µM	> 10 µM	–	–	–
CO[C@H]1/C=C/O[C@@]2(C)Oc3c(C)c(O)c4c(=O)c(c5oc6cc(C)cc(N7CCN(C(=O)c8cccc(-n9ccnc9)c8)CC7)c6nc-5c4c3C2=O)NC(=O)/C(C)=C\C=C\[C@H](C)[C@H](O)[C@@H](C)[C@@H](O)[C@@H](C)[C@H](OC(C)=O)[C@@H]1C [Compound 30f, (7S,9E,11S,12R,13S,14R,15R,16R,17S,18S,19E,21Z)-2,15,17-Trihydroxy-32-{4-[3-(1H-imidazol-1-yl)benzoyl]piperazin-1-yl}-11-methoxy-3,7,12,14,16,18,22,30-octamethyl-6,23,37-trioxo-8,27,38-trioxa-24,34-diazahexacyclo[23.11.1.1^4,7.0^5,36.0^26,35.0^28,33]octatriaconta-1(36)2,4,9,19,21,25,28,30,32,34-undecaen-13-yl acetate]	98%	64%	1.63	0.044 µM	> 10 µM	–	–	–
CO[C@H]1/C=C/O[C@@]2(C)Oc3c(C)c(O)c4c(=O)c(c5oc6cc(N7CCN(C(=O)C(C)(C)C)CC7)cc(OCc7ccc(CN8CCOCC8)cc7)c6nc-5c4c3C2=O)NC(=O)/C(C)=C\C=C\[C@H](C)[C@H](O)[C@@H](C)[C@@H](O)[C@@H](C)[C@H](OC(C)=O)[C@@H]1C [Compound 17f, (7S,9E,11S,12R,13S,14R,15R,16R,17S,18S,19E,21Z)-30-[4-(2,2-Dimethylpropanoyl)-piperazin-1-yl]-2,15,17-trihydroxy-11-methoxy-3,7,12,14,16,18,22-heptamethyl-32-({4-[(morpholin-4-yl)methyl]phenyl}methoxy)-6,23,37-trioxo-8,27,38-trioxa-24,34-diazahexacyclo[23.11.1.1^4,7.0^5,36.0^26,35.0^28,33]octatriaconta-1(36)2,4,9,19,21,25,28,30,32,34-undecaen-13-yl acetate]	85%	71%	1.0	–	> 10 µM	0.027 µM	–	–
CO[C@H]1/C=C/O[C@@]2(C)Oc3c(C)c(O)c4c(=O)c(c5oc6cc(N7CCS(=O)(=O)CC7)cc(OCc7ccc(CN8CCOCC8)cc7)c6nc-5c4c3C2=O)NC(=O)/C(C)=C\C=C\[C@H](C)[C@H](O)[C@@H](C)[C@@H](O)[C@@H](C)[C@H](OC(C)=O)[C@@H]1C [Compound 17j, (7S,9E,11S,12R,13S,14R,15R,16R,17S,18S,19E,21Z)-30-(1,1-dioxothiomorpholin-4-yl)-2,15,17-trihydroxy-11-methoxy-3,7,12,14,16,18,22-heptamethyl-32-([4-(morpholin-4-ylmethyl)phenyl]methoxy)-6,23,37-trioxo-8,27,38-trioxa-24,34-diazahexacyclo-[23.11.1.1^4,7.0^5,36.0^26,35.0^28,33]octatriaconta-1,3,5(36)9,19,21,25,28,30,32,34-undecaen-13-yl acetate]	2%	126%	–	–	> 10 µM	> 0.01 µM	–	–
CO[C@H]1/C=C/O[C@@]2(C)Oc3c(C)c(O)c4c(=O)c(c5oc6cc(C=O)cc(N7CCN(C)CC7)c6nc-5c4c3C2=O)NC(=O)/C(C)=C\C=C\[C@H](C)[C@H](O)[C@@H](C)[C@@H](O)[C@@H](C)[C@H](OC(C)=O)[C@@H]1C [Compound 30b, (7S,9E,11S,12R,13S,14R,15R,16R,17S,18S,19E,21Z)-30-Formyl-2,15,17-trihydroxy-11-methoxy-3,7,12,14,16,18,22-heptamethyl-32-(4-methylpiperazin-1-yl)-6,23,37-trioxo-8,27,38-trioxa-24,34-diazahexacyclo[23.11.1.1^4,7.0^5,36.0^26,35.0^28,33]octatriaconta-1(36)2,4,9,19,21,25,28,30,32,34-undecaen-13-yl acetate]	–	–	1.37	–	–	–	0.037 µM	> 8 µM
